*1 amine or outer side, *2 acyl side, *3 side chain or, on linkers, in order; H or OH if unused. Where a SMILES comes first, the peptide text is derived from it. Where no end group is shown, it is not given here. Side-chain parts run from the residue outwards. The star is where a group is joined. γGlu = O=C(O)[C@H](CCC(=O)[*:2])N[*:1]; Hydrocinnamoyl = O=C(CCc1ccccc1)*; Palmitoyl = CCCCCCCCCCCCCCCC(=O)*; Hexanoyl = CCCCCC(=O)*
T1: human VPAC2 (Homo sapiens, UniProt P41587)
T1 construct: expressed in transfected cells
T1 sequence (P41587 24-438): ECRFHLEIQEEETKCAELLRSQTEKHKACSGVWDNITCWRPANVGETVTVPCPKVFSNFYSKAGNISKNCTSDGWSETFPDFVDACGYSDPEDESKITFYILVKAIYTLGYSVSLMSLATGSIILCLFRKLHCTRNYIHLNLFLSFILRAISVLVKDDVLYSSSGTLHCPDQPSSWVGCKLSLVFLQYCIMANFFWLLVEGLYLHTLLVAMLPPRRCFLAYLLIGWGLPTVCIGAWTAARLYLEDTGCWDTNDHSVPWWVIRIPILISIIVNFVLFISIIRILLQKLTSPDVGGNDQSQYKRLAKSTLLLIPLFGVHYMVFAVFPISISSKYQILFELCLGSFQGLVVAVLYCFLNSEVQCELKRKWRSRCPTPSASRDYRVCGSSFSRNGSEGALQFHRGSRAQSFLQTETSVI

T2: human VPAC1 (Homo sapiens, UniProt P32241)
T2 sequence (P32241 31-457): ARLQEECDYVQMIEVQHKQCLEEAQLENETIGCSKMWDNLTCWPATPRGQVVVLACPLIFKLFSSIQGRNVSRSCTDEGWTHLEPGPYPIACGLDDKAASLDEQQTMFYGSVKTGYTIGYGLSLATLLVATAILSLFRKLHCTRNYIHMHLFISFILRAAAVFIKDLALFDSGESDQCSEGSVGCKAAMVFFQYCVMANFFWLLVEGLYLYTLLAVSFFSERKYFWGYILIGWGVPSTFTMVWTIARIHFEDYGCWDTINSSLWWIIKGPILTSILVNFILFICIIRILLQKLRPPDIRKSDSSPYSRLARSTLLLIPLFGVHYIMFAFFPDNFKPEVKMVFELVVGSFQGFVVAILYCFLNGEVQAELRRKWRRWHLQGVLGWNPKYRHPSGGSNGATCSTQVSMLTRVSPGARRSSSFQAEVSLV

T3: rat VPAC1 receptor (rat, UniProt P30083)
T3 sequence: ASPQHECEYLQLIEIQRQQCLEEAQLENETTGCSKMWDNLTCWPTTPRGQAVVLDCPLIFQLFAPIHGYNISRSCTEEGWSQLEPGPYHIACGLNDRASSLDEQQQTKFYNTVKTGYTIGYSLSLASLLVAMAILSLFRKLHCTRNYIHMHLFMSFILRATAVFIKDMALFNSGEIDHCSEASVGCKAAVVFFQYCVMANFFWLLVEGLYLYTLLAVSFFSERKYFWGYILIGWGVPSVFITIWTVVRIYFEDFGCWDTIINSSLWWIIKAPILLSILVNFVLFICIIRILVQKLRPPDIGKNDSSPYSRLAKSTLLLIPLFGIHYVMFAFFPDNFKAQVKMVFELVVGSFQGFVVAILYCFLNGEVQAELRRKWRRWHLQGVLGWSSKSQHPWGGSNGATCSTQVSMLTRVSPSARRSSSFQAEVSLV

T4: human VPAC2 receptor (human) (UniProt P41587)
T4 sequence: T1 sequence (P41587 24-438)

T5: rat VPAC2 receptor (rat, UniProt P35000)
T5 sequence: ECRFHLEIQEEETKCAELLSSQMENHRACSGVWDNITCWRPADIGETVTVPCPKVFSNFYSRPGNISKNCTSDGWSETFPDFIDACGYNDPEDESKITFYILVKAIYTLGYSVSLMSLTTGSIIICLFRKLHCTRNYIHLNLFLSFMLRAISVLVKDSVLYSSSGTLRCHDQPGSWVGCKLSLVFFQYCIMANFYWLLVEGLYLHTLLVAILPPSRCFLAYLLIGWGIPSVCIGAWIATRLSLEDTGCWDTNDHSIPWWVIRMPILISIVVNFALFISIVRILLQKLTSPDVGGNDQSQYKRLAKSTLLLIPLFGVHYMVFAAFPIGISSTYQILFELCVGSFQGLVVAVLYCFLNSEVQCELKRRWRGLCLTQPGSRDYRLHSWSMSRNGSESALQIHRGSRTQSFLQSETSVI

B1: P118 (peptide)
peptide: Hexanoyl-HSDAVFTDNYTRLRKQVAAKKYLQSIKNSRTSPPPK(Trp)-NH2
SMILES: CCCCCC(=O)N[C@@H](Cc1c[nH]cn1)C(=O)N[C@@H](CO)C(=O)N[C@@H](CC(=O)O)C(=O)N[C@@H](C)C(=O)N[C@H](C(=O)N[C@@H](Cc1ccccc1)C(=O)N[C@H](C(=O)N[C@@H](CC(=O)O)C(=O)N[C@@H](CC(N)=O)C(=O)N[C@@H](Cc1ccc(O)cc1)C(=O)N[C@H](C(=O)N[C@@H](CCCNC(=N)N)C(=O)N[C@@H](CC(C)C)C(=O)N[C@@H](CCCNC(=N)N)C(=O)N[C@@H](CCCCN)C(=O)N[C@@H](CCC(N)=O)C(=O)N[C@H](C(=O)N[C@@H](C)C(=O)N[C@@H](C)C(=O)N[C@@H](CCCCN)C(=O)N[C@@H](CCCCN)C(=O)N[C@@H](Cc1ccc(O)cc1)C(=O)N[C@@H](CC(C)C)C(=O)N[C@@H](CCC(N)=O)C(=O)N[C@@H](CO)C(=O)N[C@H](C(=O)N[C@@H](CCCCN)C(=O)N[C@@H](CC(N)=O)C(=O)N[C@@H](CO)C(=O)N[C@@H](CCCNC(=N)N)C(=O)N[C@H](C(=O)N[C@@H](CO)C(=O)N1CCC[C@H]1C(=O)N1CCC[C@H]1C(=O)N1CCC[C@H]1C(=O)N[C@@H](CCCCNC(=O)[C@@H](N)Cc1c[nH]c2ccccc12)C(N)=O)[C@@H](C)O)[C@@H](C)CC)C(C)C)[C@@H](C)O)[C@@H](C)O)C(C)C
B2: P309 (peptide)
peptide: HSDAVFTDNYTRLRXQVAAXKYLQSIKNSRTSPPP
modifications: N-terminal hexanoyl (C6); Aib (amino isobutyric acid) at positions 15 and 20; C-terminal amide (-NH2)
B3: P81 (peptide)
peptide: Hexanoyl-HSDAVFTDNYTRLRKQVAAKKYLQSIKNSRTSPPPK([γGlu-Palmitoyl])-NH2
SMILES: CCCCCCCCCCCCCCCC(=O)N[C@@H](CCC(=O)NCCCC[C@H](NC(=O)[C@@H]1CCCN1C(=O)[C@@H]1CCCN1C(=O)[C@@H]1CCCN1C(=O)[C@H](CO)NC(=O)[C@@H](NC(=O)[C@H](CCCNC(=N)N)NC(=O)[C@H](CO)NC(=O)[C@H](CC(N)=O)NC(=O)[C@H](CCCCN)NC(=O)[C@@H](NC(=O)[C@H](CO)NC(=O)[C@H](CCC(N)=O)NC(=O)[C@H](CC(C)C)NC(=O)[C@H](Cc1ccc(O)cc1)NC(=O)[C@H](CCCCN)NC(=O)[C@H](CCCCN)NC(=O)[C@H](C)NC(=O)[C@H](C)NC(=O)[C@@H](NC(=O)[C@H](CCC(N)=O)NC(=O)[C@H](CCCCN)NC(=O)[C@H](CCCNC(=N)N)NC(=O)[C@H](CC(C)C)NC(=O)[C@H](CCCNC(=N)N)NC(=O)[C@@H](NC(=O)[C@H](Cc1ccc(O)cc1)NC(=O)[C@H](CC(N)=O)NC(=O)[C@H](CC(=O)O)NC(=O)[C@@H](NC(=O)[C@H](Cc1ccccc1)NC(=O)[C@@H](NC(=O)[C@H](C)NC(=O)[C@H](CC(=O)O)NC(=O)[C@H](CO)NC(=O)[C@H](Cc1c[nH]cn1)NC(=O)CCCCC)C(C)C)[C@@H](C)O)[C@@H](C)O)C(C)C)[C@@H](C)CC)[C@@H](C)O)C(N)=O)C(=O)O

Experiments:
human VPAC2 [1] = target: T1, human VPAC2; experiment: DiscoveRx cAMP in vitro potency, human VPAC2; type: cell-based
Procedure: (§1) Also, the cells are washed twice. The cells are incubated in assay buffer plus IBMX for 15 minutes at room temperature. […] The stimuli are present for 30 minutes. Then, the assay buffer is gently removed. […] At day 3, the assay described above for the VPAC2 receptor cell line is performed.

human VPAC2 [2] = target: T1, human VPAC2; experiment: Filter binding assay, human VPAC2 membranes, 125I-labeled VIP tracer
Procedure: (§2) For this assay, the solutions and equipment include:
(§3) Presoak solution: 0.5% Polyethyleneamine in Aqua dest.
(§4) Buffer for flushing filter plates: 25 mM […] pH 7.4
(§5) Blocking buffer: 25 mM HEPES pH 7.4; 0.2% protease free BSA
(§6) Assay buffer: 25 mM HEPES pH 7.4; 0.5% protease free BSA
(§7) Dilution and assay plate: PS-Microplate, U form
(§8) Filtration Plate Multiscreen FB Opaque Plate; […] Type B Glasfiber filter
(§9) In order to prepare the filter plates, aspirate the presoak solution by vacuum filtration. Flush the plates twice with 200 μL flush buffer. Add 200 μL blocking buffer to the filter plate. The filter plate is then incubated […] for 1 hour at room temperature.
(§10) Fill the assay plate with 25 μL assay buffer, 25 μL membranes (2.5 μg) suspended in assay buffer, 25 μL compound (agonist) in assay buffer, and 25 μL tracer (about 40000 cpm) in assay buffer. Incubate the filled plate for 1 hour with shaking.
(§11) Conduct the transfer from assay plate to filter plate. Aspirate the blocking buffer by vacuum filtration and wash two times with flush buffer. Transfer 90 μL from the assay plate to the filter plate. Aspirate the 90 μL transferred from assay plate and wash three times with 200 μL flush buffer. Remove the plastic support. Dry for 1 hour at 60° C. Add 30 μL Microscint. Perform the count.

human VPAC2 [3] = target: T1, human VPAC2; experiment: Alpha screen cAMP in vitro potency, human VPAC2; type: cell-based
Procedure: Alpha screen: Cells are washed in the culture flask once with PBS. Then, the cells are rinsed with enzyme free dissociation buffer. The dissociated cells are removed. The cells are then spun down and washed in stimulation buffer. For each data point, 50,000 cells suspended in stimulation buffer are used. To this buffer, Alpha screen acceptor beads are added along with the stimuli. This mixture is incubated for 60 minutes. Lysis buffer and Alpha screen donor beads are added and are incubated for 60 to 120 minutes. The Alpha screen signal (indicative of intracellular cAMP levels) is read in a suitable instrument (e.g. AlphaQuest from Perlin-Elmer). Steps including Alpha screen donor and acceptor beads are performed in reduced light.

human VPAC1 [4] = target: T2, human VPAC1; experiment: DiscoveRx cAMP in vitro potency, human VPAC1; type: cell-based; design: expressed in transfected cells; host or cells: CHO-PO, transient transfection (Lipofectamine)
Procedure: as §1

human PAC1 [5] = target: T6, human PAC1 (Homo sapiens, UniProt P41586); experiment: cell-based
T6 sequence (P41586 21-468): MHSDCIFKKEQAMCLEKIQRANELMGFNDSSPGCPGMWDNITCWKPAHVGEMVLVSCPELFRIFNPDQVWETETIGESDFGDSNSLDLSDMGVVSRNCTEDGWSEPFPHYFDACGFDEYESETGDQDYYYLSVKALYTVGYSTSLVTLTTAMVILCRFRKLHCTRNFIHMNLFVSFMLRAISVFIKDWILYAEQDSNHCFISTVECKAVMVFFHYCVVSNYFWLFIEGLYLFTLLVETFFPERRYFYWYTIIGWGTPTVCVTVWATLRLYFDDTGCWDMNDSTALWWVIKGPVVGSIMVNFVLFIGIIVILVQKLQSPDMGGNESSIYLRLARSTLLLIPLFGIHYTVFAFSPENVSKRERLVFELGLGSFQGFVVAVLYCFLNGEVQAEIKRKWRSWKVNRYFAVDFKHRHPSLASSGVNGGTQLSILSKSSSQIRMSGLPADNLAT
Procedure: as §1

human VPAC1 [6] = target: T2, human VPAC1; experiment: Filter binding assay, human VPAC1 membranes, 125I-labeled VIP tracer; design: expressed in transfected cells
Procedure: as §2, §3, §4, §5, §6, §7, §8, §9, §10, §11

human PAC1 [7] = target: T6, human PAC1; experiment: biochemical
Procedure: as §2, §3, §4, §5, §6, §7, §8, §9, §10, §11

rat VPAC1 receptor = target: T3, rat VPAC1 receptor; experiment: cell-based or functional assay
[8] = target: T4, human VPAC2 receptor (human)
rat VPAC2 receptor = target: T5, rat VPAC2 receptor; experiment: cell-based or functional assay

Molecule	EC50 (human VPAC2 [1])	IC50 (human VPAC2 [2])	EC50 (human VPAC2 [3])	IC50 (human VPAC1 [6])	EC50 for cAMP generation, DiscoveRx (rat VPAC1 receptor)	EC50 (nM) for cAMP generation, Alpha Screen [8]	also measured
Ac-HSDAVFTDNYTRLRKQVAAKKYLQSIKNSRTSPPP-NH2 [Agonist P32]	0.65 nM	0.89 nM	0.32 nM	38.3 nM			EC50 (human VPAC1 [4]): 8.24 nM; EC50 (human PAC1 [5]): 125 nM
HSDAVFTDNYTRLRKQVAAKKYLQSIKNSRTSPPP-NH2 [Agonist P5]	1.21 nM	0.67 nM	1.5 nM	56.7 nM			IC50 (human PAC1 [7]): 234 nM; EC50 (human VPAC1 [4]): 1.1 nM; EC50 (human PAC1 [5]): 30 nM
CC[C@H](C)[C@H](NC(=O)[C@H](CO)NC(=O)[C@H](CCC(N)=O)NC(=O)[C@H](CC(C)C)NC(=O)[C@H](Cc1ccc(O)cc1)NC(=O)[C@H](CCCCN)NC(=O)[C@H](CCCCN)NC(=O)[C@H](C)NC(=O)[C@H](C)NC(=O)[C@@H](NC(=O)[C@H](CCC(N)=O)NC(=O)[C@H](CCCCN)NC(=O)[C@H](CCCNC(=N)N)NC(=O)[C@H](CC(C)C)NC(=O)[C@H](CCCNC(=N)N)NC(=O)[C@@H](NC(=O)[C@H](Cc1ccc(O)cc1)NC(=O)[C@H](CC(N)=O)NC(=O)[C@H](CC(=O)O)NC(=O)[C@@H](NC(=O)[C@H](Cc1ccccc1)NC(=O)[C@@H](NC(=O)[C@H](C)NC(=O)[C@H](CC(=O)O)NC(=O)[C@H](CO)NC(=O)[C@H](Cc1c[nH]cn1)NC(=O)CCc1ccccc1)C(C)C)[C@@H](C)O)[C@@H](C)O)C(C)C)C(=O)N[C@@H](CCCCN)C(=O)N[C@@H](CC(N)=O)C(=O)N[C@@H](CO)C(=O)N[C@@H](CCCNC(=N)N)C(=O)N[C@H](C(=O)N[C@@H](CO)C(=O)N1CCC[C@H]1C(=O)N1CCC[C@H]1C(=O)N1CCC[C@H]1C(N)=O)[C@@H](C)O [Agonist P90] (Hydrocinnamoyl-HSDAVFTDNYTRLRKQVAAKKYLQSIKNSRTSPPP-NH2)	1.7 nM	0.82 nM	4.01 nM	65 nM			
B1					0.47 nM		
B2						0.16 nM	EC50 for cAMP generation, DiscoveRx (rat VPAC2 receptor): 0.05 nM
B3					0.8 nM	0.01 nM	EC50 (nM) for cAMP generation, DiscoveRx [8]: 0.18 nM; EC50 for cAMP generation, DiscoveRx (rat VPAC2 receptor): 0.05 nM
HSDAVFTDNYTRLRKAAAAKKYLQSIKNSRTSPPP-NH2 [P97]					0.3 nM	0.64 nM	

Reference: patent US20080096811A1, “[…] VPAC2 RECEPTOR PEPTIDE AGONISTS” (Eli Lilly and Company, published 2008)
